Reference: PubChem BioAssay AID1963831 (Molecular Pharmacology Branch, DTP, NCI, 2024)
Each block holds one compound with its values, some of them ahead of it.

Test system: 889142-216-R-J1-PDC complex spheroid viability
Experiment: Anticancer human tumor 889142-216-R-J1-PDC patient-derived bladder carcinoma cell line growth inhibition [POLQ]
Settings: for IC50: curve of first compound; for viability, T/C: stronger effect = lower value
Outline: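 Complex spheroid viability model combining PDC tumour cells with endothelial (HUVEC) and MSC stromal cells. Novobiocin, ART-558 or RP6685 were tested singly and in combination with standard and investigational anticancer drugs. Each was titrated in half-log steps from near clinical Cmax, or from 10 microM where Cmax was unknown.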

[1] = second compound 0.0316 µM, first compound 0.0316 µM
[2] = second compound 0.0316 µM, first compound 0.1 µM
[3] = second compound 0.0316 µM, first compound 0.316 µM
[4] = second compound 0.0316 µM, first compound 1 µM
[5] = second compound 0.1 µM, first compound 0.0316 µM
[6] = second compound 0.1 µM, first compound 0.1 µM
[7] = second compound 0.1 µM, first compound 0.316 µM
[8] = second compound 0.1 µM, first compound 1 µM
[9] = second compound 0.316 µM, first compound 0.0316 µM
[10] = second compound 0.316 µM, first compound 0.1 µM
[11] = second compound 0.316 µM, first compound 0.316 µM
[12] = second compound 0.316 µM, first compound 1 µM
[13] = second compound 1 µM, first compound 0.0316 µM
[14] = second compound 1 µM, first compound 0.1 µM
[15] = second compound 1 µM, first compound 0.316 µM
[16] = second compound 1 µM, first compound 1 µM
[17] = second compound 3.16 µM, first compound 0.0316 µM
[18] = second compound 3.16 µM, first compound 0.1 µM
[19] = second compound 3.16 µM, first compound 0.316 µM
[20] = second compound 3.16 µM, first compound 1 µM
[21] = second compound 10 µM, first compound 0.0316 µM
[22] = second compound 10 µM, first compound 0.1 µM
[23] = second compound 10 µM, first compound 0.316 µM
[24] = second compound 10 µM, first compound 1 µM
[25] = second compound 0.0316 µM, first compound 3.16 µM
[26] = second compound 0.0316 µM, first compound 10 µM
[27] = second compound 0.1 µM, first compound 3.16 µM
[28] = second compound 0.1 µM, first compound 10 µM
[29] = second compound 0.316 µM, first compound 3.16 µM
[30] = second compound 0.316 µM, first compound 10 µM
[31] = second compound 1 µM, first compound 3.16 µM
[32] = second compound 1 µM, first compound 10 µM
[33] = second compound 3.16 µM, first compound 3.16 µM
[34] = second compound 3.16 µM, first compound 10 µM
[35] = second compound 10 µM, first compound 3.16 µM
[36] = second compound 10 µM, first compound 10 µM
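Note: spheroids exposed to compounds for seven days.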
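Throughout, for viability, T/C: 100% = DMSO vehicle control viability.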

IC50 (second compound 0.0316 µM): 0.0206 µM | IC50 (second compound 0.1 µM): 0.017 µM | IC50 (second compound 0.316 µM): 0.014 µM | IC50 (second compound 1 µM): 0.0145 µM | IC50 (second compound 3.16 µM): 0.0194 µM | IC50 (second compound 10 µM): 0.00621 µM
SMILES: CCc1c2c(nc3ccc(O)cc13)-c1cc3c(c(=O)n1C2)COC(=O)[C@]3(O)CC + Cc1cccc(N(C)C(=O)C2C(O)CCN2c2nc(C)cc(C(F)(F)F)c2C#N)c1
viability, T/C (second compound 0.0316 µM, first compound 0.00316 µM): 68.8% | viability, T/C (second compound 0.0316 µM, first compound 0.01 µM): 48.8% | viability, T/C [1]: 50.4% | viability, T/C [2]: 30.2% | viability, T/C [3]: 35.8% | viability, T/C [4]: 10.7% | viability, T/C (second compound 0.1 µM, first compound 0.00316 µM): 58.9% | viability, T/C (second compound 0.1 µM, first compound 0.01 µM): 56% | viability, T/C [5]: 44.7% | viability, T/C [6]: 34% | viability, T/C [7]: 28.4% | viability, T/C [8]: 10.4% | viability, T/C (second compound 0.316 µM, first compound 0.00316 µM): 58.4% | viability, T/C (second compound 0.316 µM, first compound 0.01 µM): 57.3% | viability, T/C [9]: 37.2% | viability, T/C [10]: 35.6% | viability, T/C [11]: 27.7% | viability, T/C [12]: 8.37% | viability, T/C (second compound 1 µM, first compound 0.00316 µM): 64% | viability, T/C (second compound 1 µM, first compound 0.01 µM): 51.3% | viability, T/C [13]: 39% | viability, T/C [14]: 35.3% | viability, T/C [15]: 31.1% | viability, T/C [16]: 9.07% | viability, T/C (second compound 3.16 µM, first compound 0.00316 µM): 60.5% | viability, T/C (second compound 3.16 µM, first compound 0.01 µM): 60.4% | viability, T/C [17]: 40.9% | viability, T/C [18]: 34% | viability, T/C [19]: 30.3% | viability, T/C [20]: 5.91% | viability, T/C (second compound 10 µM, first compound 0.00316 µM): 52% | viability, T/C (second compound 10 µM, first compound 0.01 µM): 51.9% | viability, T/C [21]: 35.9% | viability, T/C [22]: 34.7% | viability, T/C [23]: 26.1% | viability, T/C [24]: 6.24%

SMILES: C#Cc1c(F)ccc2cc(O)cc(-c3ncc4c(N5CC6CCC(C5)N6)nc(OCC56CCCN5CC(F)C6)nc4c3F)c12 (stereo not drawn) + Nc1ccc(C#CCN(C(=O)Cc2ncc(C(F)(F)F)cc2C(F)(F)F)c2ccc(F)cc2)nn1
IC50 (second compound 0.0316 µM): > 10 µM | IC50 (second compound 0.1 µM): 7.63 µM | IC50 (second compound 0.316 µM): > 10 µM | IC50 (second compound 1 µM): > 10 µM | IC50 (second compound 3.16 µM): > 10 µM | IC50 (second compound 10 µM): 7.61 µM | viability, T/C [1]: 101% | viability, T/C [2]: 102% | viability, T/C [3]: 75% | viability, T/C [4]: 74.6% | viability, T/C [25]: 84.8% | viability, T/C [26]: 43.9% | viability, T/C [5]: 103% | viability, T/C [6]: 119% | viability, T/C [7]: 85.3% | viability, T/C [8]: 79% | viability, T/C [27]: 86.6% | viability, T/C [28]: 38.9% | viability, T/C [9]: 115% | viability, T/C [10]: 99.4% | viability, T/C [11]: 73.5% | viability, T/C [12]: 116% | viability, T/C [29]: 69.8% | viability, T/C [30]: 49.7% | viability, T/C [13]: 115% | viability, T/C [14]: 102% | viability, T/C [15]: 95.8% | viability, T/C [16]: 76.7% | viability, T/C [31]: 65.3% | viability, T/C [32]: 52.5% | viability, T/C [17]: 94% | viability, T/C [18]: 98.1% | viability, T/C [19]: 90.3% | viability, T/C [20]: 131% | viability, T/C [33]: 70.3% | viability, T/C [34]: 63.8% | viability, T/C [21]: 120% | viability, T/C [22]: 81.6% | viability, T/C [23]: 108% | viability, T/C [24]: 75.5% | viability, T/C [35]: 90.5% | viability, T/C [36]: 38.8%

SMILES: C=CC(=O)N1CCN(c2nc(=O)n(-c3c(C)ccnc3C(C)C)c3nc(-c4c(O)cccc4F)c(F)cc23)C(C)C1 (stereo not drawn) + COC1C(OC(N)=O)C(O)C(Oc2ccc3c(O)c(NC(=O)c4ccc(O)c(CC=C(C)C)c4)c(=O)oc3c2C)OC1(C)C
IC50 (second compound 0.0316 µM): > 10 µM | IC50 (second compound 0.1 µM): > 10 µM | IC50 (second compound 0.316 µM): > 10 µM | IC50 (second compound 1 µM): > 10 µM | IC50 (second compound 3.16 µM): > 10 µM | IC50 (second compound 10 µM): > 10 µM | viability, T/C [1]: 111% | viability, T/C [2]: 114% | viability, T/C [3]: 121% | viability, T/C [4]: 111% | viability, T/C [25]: 131% | viability, T/C [26]: 88.7% | viability, T/C [5]: 113% | viability, T/C [6]: 116% | viability, T/C [7]: 116% | viability, T/C [8]: 146% | viability, T/C [27]: 127% | viability, T/C [28]: 82.4% | viability, T/C [9]: 111% | viability, T/C [10]: 133% | viability, T/C [11]: 103% | viability, T/C [12]: 125% | viability, T/C [29]: 135% | viability, T/C [30]: 78% | viability, T/C [13]: 97.3% | viability, T/C [14]: 123% | viability, T/C [15]: 126% | viability, T/C [16]: 109% | viability, T/C [31]: 112% | viability, T/C [32]: 103% | viability, T/C [17]: 98.3% | viability, T/C [18]: 124% | viability, T/C [19]: 115% | viability, T/C [20]: 132% | viability, T/C [33]: 123% | viability, T/C [34]: 82.7% | viability, T/C [21]: 115% | viability, T/C [22]: 102% | viability, T/C [23]: 112% | viability, T/C [24]: 113% | viability, T/C [35]: 145% | viability, T/C [36]: 85.3%

SMILES: O=C(c1cc(Cc2n[nH]c(=O)c3ccccc23)ccc1F)N1CCN(C(=O)C2CC2)CC1 + Nc1ccc(C#CCN(C(=O)Cc2ncc(C(F)(F)F)cc2C(F)(F)F)c2ccc(F)cc2)nn1
IC50 (second compound 0.0316 µM): > 10 µM | IC50 (second compound 0.1 µM): > 10 µM | IC50 (second compound 0.316 µM): > 10 µM | IC50 (second compound 1 µM): > 10 µM | IC50 (second compound 3.16 µM): > 10 µM | IC50 (second compound 10 µM): > 10 µM | viability, T/C [1]: 94% | viability, T/C [2]: 93% | viability, T/C [3]: 66.3% | viability, T/C [4]: 118% | viability, T/C [25]: 80.1% | viability, T/C [26]: 73.5% | viability, T/C [5]: 95.3% | viability, T/C [6]: 112% | viability, T/C [7]: 83.7% | viability, T/C [8]: 97.5% | viability, T/C [27]: 79.5% | viability, T/C [28]: 66.6% | viability, T/C [9]: 110% | viability, T/C [10]: 115% | viability, T/C [11]: 85.2% | viability, T/C [12]: 104% | viability, T/C [29]: 97.5% | viability, T/C [30]: 59.7% | viability, T/C [13]: 152% | viability, T/C [14]: 113% | viability, T/C [15]: 94.8% | viability, T/C [16]: 102% | viability, T/C [31]: 85.2% | viability, T/C [32]: 67.6% | viability, T/C [17]: 104% | viability, T/C [18]: 92.4% | viability, T/C [19]: 90.1% | viability, T/C [20]: 98.2% | viability, T/C [33]: 95.1% | viability, T/C [34]: 62.8% | viability, T/C [21]: 111% | viability, T/C [22]: 110% | viability, T/C [23]: 97.5% | viability, T/C [24]: 90.9% | viability, T/C [35]: 76.3% | viability, T/C [36]: 86.2%
